# Read-outs that look alike come from different tables or passages of the source. Where a SMILES comes first, the peptide text is derived from it. [ ]: non-standard residue; d: D form.
# What was measured:
# [1] = test system: bFGF-induced angiogenesis; assay: CAM assay, growth factor-induced angiogenesis, intravenous application; type: in vivo, chick; conditions: for reducing the number of branch points of new blood vessels: FIG. 26, in decreasing order of inhibition 14, 10, 9, 12, compared to bFGF control and compound 7; for inhibition of formation of new blood vessels induced by bFGF: 250 μg/ml, 18 hours after bFGF treatment, FIG. 12; for anti-angiogenic properties (branch points): FIG. 27, 100 μg/embryo, compared to bFGF control and compound 16
# Method: J. Pathol., 79:597 (1975). CAMs were prepared from chick embryos for subsequent induction of angiogenesis and inhibition thereof as described in Examples 4 and 5, respectively. Ten day old chick embryos were obtained from McIntyre Poultry (Lakeside, Calif.) and incubated at 37° C. with 60% humidity. A small hole was made through the shell at the end of the egg directly over the air sac with the use of a small crafts drill (Dremel, Division of Emerson Electric Co. Racine Wis.). A second hole was drilled on the broad side of the egg in a region devoid of embryonic blood vessels determined previously by candling the egg. […] A 1.0 centimeter (cm)×1.0 cm square window was cut through the shell over the dropped CAM with the use of a small model grinding wheel (Dremel). The small window allowed direct access to the underlying CAM.
# Angiogenesis was induced by placing a 5 millimeter (mm)×5 mm Whatman filter disk (Whatman Filter paper No.1) saturated with Hanks Balanced Salt Solution (HBSS, GIBCO, Grand Island, N.Y.) or HBSS containing 150 nanograms/milliliter (ng/ml) recombinant basic fibroblast growth factor (bFGF) (Genzyme, Cambridge, Mass.) on the CAM of a 10-day chick embryo in a region devoid of blood vessels and the windows were latter sealed with tape. In other assays, 125 ng/ml bFGF was also effective at inducing blood vessel growth. For assays where inhibition of angiogenesis ws evaluated with intravenous injections of antagonists, angiogenesis was first induced with 1-2 μg/ml bFGF in fibroblast growth medium. Angiogenesis was monitored by photomicroscopy after 72 hours. CAMs were snap frozen, and 6 um cryostat sections were fixed with acetone and stained by immunofluorescence as described in Example 3C with 10 μg/ml of either anti-β1 monoclonal antibody CSAT or LM609.
# For CAM preparations in which angiogenesis was induced with 1-2 μg/ml bFGF as previously described, synthetic peptides 69601 (control) and 66203 (SEQ ID NO: 5) were separately intravenously injected into CAM preparations 18 hours after bFGF induction of angiogenesis. The preparations were maintained for an additional 36-40 hours after which time the number of branch points were determined as previously described.
# In other assays, peptide 85189 (SEQ ID NO: 15) was evaluated for inhibiting bFGF-induced angiogenesis in the CAM assay over a dosage range of 10 μg/embryo to 300 μg/embryo. The assay was performed as previously described.
# In still further assays, peptide 85189 was compared to peptides 69601 and 66203 for anti-angiogenesis activity. The assay was performed as described above with the exception that 50 μg peptide were used.
# The effectiveness of the different salt formulations of peptide 85189 was also evaluated in similar bFGF-induced CAM assays. The peptides were used at 100 μg/embryo. […] Untreated CAMs, labeled as “no cytokine” had approximately […] as many branch points as that seen with bFGF treatment, respectively 70 versus 190.
# With the above-described protocol, the effect of MMP-2 fusion proteins, CTMMP-2(2-4), also referred to as CTMMP-2(445-467) and CTMMP-2(10-1), also referred to as CTMMP-2(274-637) was also evaluated. The assay was performed as previously described with the exception that 50 μg of fusion protein was administered to the bFGF-treated embryos. The effect of fusion protein treatment was assessed at 24 hours, 48 hours and 72 hours.
# The 10 day old CAM preparation was used as previously described in Example 5A. Twenty-four hours after bFGF-induced angiogenesis was initiated, the organic peptidomimetics referred to as compounds 16 (81218), 17 (87292) and 18 (87293) were separately intravenously injected into the CAM preparation in a volume of 100 μl at a concentration of 1 mg/ml (100 μg/embryo) in 20% tetraglycol-PBS at pH 7.0. In parallel assays, compounds 7 (96112), 9 (99799), 10 (96229), 12 (112854) and 14 (96113) were similarly evaluated. […]
# αvβ3 = molecular target: T1, αvβ3 (Homo sapiens, UniProt P05106+P06756); assay: Ligand-receptor binding assay, immobilized αvβ3; conditions: for preference of inhibition of fibrinogen binding, αvβ3 versus αIIbβ3: comparison of half-maximal concentrations of Table 2
# T1 construct: selected purified integrins were separately immobilized in Titertek microtiter wells
# Excerpt: (§1) Herein described is a method of identifying antagonists in a ligand-receptor binding assay in which the receptor is immobilized to a solid support and the ligand and antagonist are soluble. Also described is a ligand-receptor binding assay in which the ligand is immobilized to a solid support and the receptor and antagonists are soluble.
# (§2) Briefly, selected purified integrins were separately immobilized in Titertek microtiter wells at a coating concentration of 50 nanograms (ng) per well. The purification of the receptors used in the ligand-receptor binding assays are well known in the art and are readily obtainable with methods familiar to one of ordinary skill in the art. After incubation for 18 hours at 4° C., nonspecific binding sites on the plate were blocked with 10 milligrams/milliliter (mg/ml) of bovine serum albumin (BSA) in Tris-buffered saline. […] Radiolabeled ligands were used at concentrations of 1 nM and binding was challenged separately with unlabeled synthetic peptides.
# (§3) Following a three hour incubation, free ligand was removed by washing and bound ligand was detected by gamma counting. […] The IC50 data in micromoles (IC50 μM) are expressed as the average of duplicate data points±the standard deviation as shown in Table 2.
# αIIbβ3 = molecular target: T2, αIIbβ3 (Homo sapiens, UniProt P05106+P08514); assay: Ligand-receptor binding assay, immobilized αIIbβ3
# T2 construct: selected purified integrins were separately immobilized in Titertek microtiter wells
# Excerpt: as §1, §2, §3
# [2] = radiolabeled fibrinogen, average of duplicate data points ± standard deviation, read-out: αvβ3 (IC50 μM)
# [3] = radiolabeled fibrinogen, average of duplicate data points ± standard deviation, read-out: αIIbβ3 (IC50 μM)
# T1 sequence (P06756 31-889 limits assumed): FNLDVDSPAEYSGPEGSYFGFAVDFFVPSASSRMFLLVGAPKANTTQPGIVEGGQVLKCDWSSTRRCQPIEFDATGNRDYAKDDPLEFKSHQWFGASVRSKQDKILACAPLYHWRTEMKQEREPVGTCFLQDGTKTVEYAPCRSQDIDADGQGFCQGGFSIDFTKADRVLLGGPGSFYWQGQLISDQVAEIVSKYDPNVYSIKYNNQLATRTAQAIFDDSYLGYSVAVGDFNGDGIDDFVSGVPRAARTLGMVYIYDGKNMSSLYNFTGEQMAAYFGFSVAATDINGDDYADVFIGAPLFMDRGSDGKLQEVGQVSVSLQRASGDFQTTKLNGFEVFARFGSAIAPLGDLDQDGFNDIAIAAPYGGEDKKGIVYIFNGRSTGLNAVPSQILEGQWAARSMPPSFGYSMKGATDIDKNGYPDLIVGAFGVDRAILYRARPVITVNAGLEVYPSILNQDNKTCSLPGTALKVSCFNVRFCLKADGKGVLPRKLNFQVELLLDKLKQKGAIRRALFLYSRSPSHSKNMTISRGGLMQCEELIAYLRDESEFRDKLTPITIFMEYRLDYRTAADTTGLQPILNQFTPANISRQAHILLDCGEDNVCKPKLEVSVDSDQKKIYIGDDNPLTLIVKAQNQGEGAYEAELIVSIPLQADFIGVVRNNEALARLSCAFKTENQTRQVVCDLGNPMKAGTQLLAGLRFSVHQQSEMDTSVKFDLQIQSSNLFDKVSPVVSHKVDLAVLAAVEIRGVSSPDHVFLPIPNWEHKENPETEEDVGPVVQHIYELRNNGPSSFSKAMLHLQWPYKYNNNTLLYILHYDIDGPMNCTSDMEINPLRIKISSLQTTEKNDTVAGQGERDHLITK
# T1 sequence (P06756 891-1048 partner limits assumed): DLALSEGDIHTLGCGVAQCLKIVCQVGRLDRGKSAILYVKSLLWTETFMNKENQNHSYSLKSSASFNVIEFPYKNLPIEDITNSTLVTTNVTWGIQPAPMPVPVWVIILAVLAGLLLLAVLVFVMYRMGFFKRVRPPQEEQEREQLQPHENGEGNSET
# T1 sequence (P05106 27-788): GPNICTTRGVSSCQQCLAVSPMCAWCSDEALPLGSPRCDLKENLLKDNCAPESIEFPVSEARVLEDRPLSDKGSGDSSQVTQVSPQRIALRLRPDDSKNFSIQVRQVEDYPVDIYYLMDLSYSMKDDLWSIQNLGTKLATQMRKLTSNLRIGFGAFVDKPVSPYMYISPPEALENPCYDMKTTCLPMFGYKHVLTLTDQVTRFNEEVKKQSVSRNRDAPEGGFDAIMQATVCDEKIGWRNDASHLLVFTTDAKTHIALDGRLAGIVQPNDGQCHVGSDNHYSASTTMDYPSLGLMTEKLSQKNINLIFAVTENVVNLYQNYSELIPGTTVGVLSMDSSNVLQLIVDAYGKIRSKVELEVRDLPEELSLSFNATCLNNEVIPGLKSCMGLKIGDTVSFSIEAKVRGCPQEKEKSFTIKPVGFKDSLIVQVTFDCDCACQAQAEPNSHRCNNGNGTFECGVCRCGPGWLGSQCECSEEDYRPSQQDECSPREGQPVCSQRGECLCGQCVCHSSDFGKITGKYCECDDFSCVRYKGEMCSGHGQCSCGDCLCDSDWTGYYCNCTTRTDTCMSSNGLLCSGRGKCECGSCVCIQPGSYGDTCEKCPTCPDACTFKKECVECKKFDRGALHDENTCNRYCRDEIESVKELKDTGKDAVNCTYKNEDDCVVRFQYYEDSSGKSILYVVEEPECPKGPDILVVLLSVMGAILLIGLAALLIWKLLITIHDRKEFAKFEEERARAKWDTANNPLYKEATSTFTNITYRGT
# T2 sequence (P08514 32-887 limits assumed): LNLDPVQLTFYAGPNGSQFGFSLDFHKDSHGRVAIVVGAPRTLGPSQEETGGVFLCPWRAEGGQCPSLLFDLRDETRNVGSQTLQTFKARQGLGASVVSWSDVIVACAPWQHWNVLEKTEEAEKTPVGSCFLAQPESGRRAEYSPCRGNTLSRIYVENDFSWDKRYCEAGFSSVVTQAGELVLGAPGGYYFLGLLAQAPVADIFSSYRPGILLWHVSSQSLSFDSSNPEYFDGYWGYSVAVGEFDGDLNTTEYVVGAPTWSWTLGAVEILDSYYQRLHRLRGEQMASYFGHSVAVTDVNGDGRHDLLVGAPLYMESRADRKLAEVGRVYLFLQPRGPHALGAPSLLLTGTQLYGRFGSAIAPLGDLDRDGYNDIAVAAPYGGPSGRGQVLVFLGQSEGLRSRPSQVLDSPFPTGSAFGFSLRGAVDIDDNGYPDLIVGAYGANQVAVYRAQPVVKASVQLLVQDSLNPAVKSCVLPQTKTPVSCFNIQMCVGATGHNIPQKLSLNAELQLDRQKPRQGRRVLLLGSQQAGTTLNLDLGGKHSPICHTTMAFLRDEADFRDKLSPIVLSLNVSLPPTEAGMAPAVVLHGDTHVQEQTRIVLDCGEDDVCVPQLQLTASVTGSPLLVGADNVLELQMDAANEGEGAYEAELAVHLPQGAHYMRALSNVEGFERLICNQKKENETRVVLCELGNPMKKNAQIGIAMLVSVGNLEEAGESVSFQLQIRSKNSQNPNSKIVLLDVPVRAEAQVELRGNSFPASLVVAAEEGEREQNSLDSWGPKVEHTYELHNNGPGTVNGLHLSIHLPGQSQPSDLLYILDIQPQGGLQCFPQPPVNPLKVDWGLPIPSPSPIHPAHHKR
# T2 sequence (P08514 891-1039 partner limits assumed): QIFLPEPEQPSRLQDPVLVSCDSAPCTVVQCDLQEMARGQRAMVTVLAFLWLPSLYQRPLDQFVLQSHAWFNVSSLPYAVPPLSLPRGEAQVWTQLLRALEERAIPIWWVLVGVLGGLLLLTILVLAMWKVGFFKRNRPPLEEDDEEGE
# T2 sequence (P05106 27-788): as the sequence (P05106 27-788) above
smiles,measurement,setting,value
Cl.Cl.N=C(N)c1ccc(N2CC(COc3ccc(CC(N)C(=O)O)cc3)OC2=O)cc1 (centres unmarked),melting point,,165 °C (dec.)
CCCCS(=O)(=O)N[C@@H](Cc1ccc(OCCCCNC(=N)N)cc1)C(=O)O [Compound 7],melting point,,70 °C
CC(C)(C)OC(=O)N[C@@H](Cc1ccc(OCCCCNC(=N)N)cc1)C(=O)O [Compound 9],reducing the number of branch points of new blood vessels,[1],effective at reducing the number of branch points
CCCCS(=O)(=O)N[C@H](Cc1ccc(OCCCCNC(=N)N)cc1)C(=O)O [Compound 10],inhibition of formation of new blood vessels induced by bFGF,[1],almost completely inhibited
same,reducing the number of branch points of new blood vessels,[1],effective at reducing the number of branch points
same,melting point,,70 °C
CC1(C)C2CCC1(CS(=O)(=O)N[C@@H](Cc1ccc(OCCCCNC(=N)N)cc1)C(=O)O)C(=O)C2 (some centres unmarked) [Compound 12],reducing the number of branch points of new blood vessels,[1],effective at reducing the number of branch points
CCCCS(=O)(=O)N[C@@H](Cc1ccc(OCCCCCNC(=N)N)cc1)C(=O)O [Compound 14],inhibition of formation of new blood vessels induced by bFGF,[1],almost completely inhibited
same,reducing the number of branch points of new blood vessels,[1],effective at reducing the number of branch points
"CCCS(=O)(=O)NC(Cc1ccc(OCC2CN(c3ccc(C(=N)N)cc3)C(=O)O2)cc1)C(=O)O (centres unmarked) [Compound 17, 3-(4-amidinophenyl)-5-(4-(2-carboxy-2-N-propyl-sulfonylaminoethyl)phenoxy)methyl-2-oxazolidinone]",anti-angiogenic properties (branch points),[1],exhibited anti-angiogenic properties
"CCS(=O)(=O)NC(Cc1ccc(OCC2CN(c3ccc(C(=N)N)cc3)C(=O)O2)cc1)C(=O)O (centres unmarked) [Compound 18, 3-(4-amidinophenyl)-5-(4-(2-carboxy-2-N-ethyl-sulfonylaminoethyl)phenoxy)methyl-2-oxazolidinone]",anti-angiogenic properties (branch points),[1],exhibited anti-angiogenic properties
"CC(C)C[C@@H]1NC(=O)[C@@H](Cc2ccccc2)NC(=O)[C@H](CC(=O)O)NC(=O)CNC(=O)[C@H](CCCNC(=N)N)NC(=O)[C@H](C)NC1=O [Peptide 62175, cyclo (ARGDfL)] (cyclo(ARGD[dF]L))","preference of inhibition of fibrinogen binding, αvβ3 versus αIIbβ3",αvβ3,either not as effective in blocking fibrinogen binding to αvβ3 or exhibited preferential inhibition of fibrinogen binding to αIIbβ3
same,IC50,αvβ3; [2],1.05 ± 0.07 µM
same,IC50,αIIbβ3; [3],0.63 ± 0.18 µM
"CC(C)C[C@@H]1NC(=O)[C@@H](Cc2ccccc2)NC(=O)[C@H](CC(=O)O)NC(=O)CNC(=O)[C@H](CCCNC(=N)N)NC(=O)CNC1=O [Peptide 62179, cyclo (GRGDfL)] (cyclo(GRGD[dF]L))","preference of inhibition of fibrinogen binding, αvβ3 versus αIIbβ3",αvβ3,either not as effective in blocking fibrinogen binding to αvβ3 or exhibited preferential inhibition of fibrinogen binding to αIIbβ3
same,IC50,αvβ3; [2],0.395 ± 0.21 µM
same,IC50,αIIbβ3; [3],0.055 ± 0.007 µM
"CC(C)[C@@H]1NC(=O)[C@H](Cc2ccccc2)NC(=O)[C@H](CC(=O)O)NC(=O)CNC(=O)[C@@H](CCCNC(=N)N)NC(=O)CNC1=O [Peptide 62181, cyclo (GrGDFV)] (cyclo(G[dR]GDFV))","preference of inhibition of fibrinogen binding, αvβ3 versus αIIbβ3",αvβ3,preferential inhibition of fibrinogen binding to the αvβ3 receptor
same,IC50,αvβ3; [2],1.96 ± 0.62 µM
same,IC50,αIIbβ3; [3],15 ± 7.84 µM
"CC(C)[C@@H]1NC(=O)[C@@H](Cc2ccccc2)NC(=O)[C@H](CC(=O)O)NC(=O)[C@H](C)NC(=O)[C@H](CCCN=C(N)N)NC1=O [Peptide 62185, cyclo (RADfV)] (cyclo(AD[dF]VR))",IC50,αvβ3; [2],0.885 ± 0.16 µM
same,IC50,αIIbβ3; [3],100 ± 0.001 µM
"CC(C)[C@@H]1NC(=O)[C@@H](Cc2ccccc2)NC(=O)[C@H](CC(=O)O)NC(=O)[C@H](C)NC(=O)[C@H](CCCNC(=N)N)NC1=O [Peptide 62185, cyclo (RADfV)] (cyclo(RAD[dF]V))","preference of inhibition of fibrinogen binding, αvβ3 versus αIIbβ3",αvβ3,preferential inhibition of fibrinogen binding to the αvβ3 receptor
CSCC[C@H](NC(=O)[C@@H]1CCCN1C(=O)[C@H](CC(N)=O)NC(=O)CNC(=O)[C@H](CC(C)C)NC(=O)[C@H](CC(=O)O)NC(=O)[C@H](CS)NC(=O)[C@@H](NC(=O)[C@@H](NC(=O)[C@H](CCC(N)=O)NC(=O)[C@H](CCCNC(=N)N)NC(=O)[C@@H](N)[C@@H](C)O)C(C)C)C(C)C)C(=O)O [Peptide 62411] (H-TRQVVCDLGNPM-OH),IC50,αvβ3,> 100 µM
same,IC50,αIIbβ3,> 100 µM
same,IC50,"αIIbβ3; read-out: αIIbβ3 IC50 (μM) VN, vitronectin, individual assay",> 100 µM
CC(C)C[C@H](NC(=O)[C@H](C)NC(=O)[C@H](CCC(=O)O)NC(=O)[C@H](CC(N)=O)NC(=O)[C@H](CC(N)=O)NC(=O)[C@H](CCCNC(=N)N)NC(=O)[C@@H](NC(=O)[C@@H](NC(=O)CN)C(C)C)C(C)C)C(=O)N[C@@H](C)C(=O)N[C@@H](CCCNC(=N)N)C(=O)N[C@@H](CC(C)C)C(=O)N[C@@H](CO)C(=O)O [Peptide 62503] (H-GVVRNNEALARLS-OH),IC50,"αvβ3; fibrinogen, individual assay, read-out: αvβ3 IC50 (μM) FG",> 100 µM
same,IC50,"αIIbβ3; fibrinogen, individual assay, read-out: αIIbβ3 IC50 (μM) FG",> 100 µM
same,IC50,"αIIbβ3; vitronectin, individual assay, read-out: αIIbβ3 IC50 (μM) VN",> 100 µM
